SMILES strings stand for the structures.

The target of the experiment is T1, TNIK (Homo sapiens, UniProt Q9UKE5).
T1 construct: kinase domain, DNA-tagged, KINOMEscan commercial panel
T1 sequence (Q9UKE5 25-289 limits assumed): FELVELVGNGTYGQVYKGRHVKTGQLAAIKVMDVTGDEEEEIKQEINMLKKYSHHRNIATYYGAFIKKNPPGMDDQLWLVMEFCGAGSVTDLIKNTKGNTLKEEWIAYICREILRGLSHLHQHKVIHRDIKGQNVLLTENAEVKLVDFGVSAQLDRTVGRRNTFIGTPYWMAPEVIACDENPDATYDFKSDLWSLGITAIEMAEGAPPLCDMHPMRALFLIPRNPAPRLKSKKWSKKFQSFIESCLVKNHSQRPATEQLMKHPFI
Kind of experiment: KINOMEscan competition binding (immobilised reference ligand, qPCR). As to conditions: read-out: % Ctrl / 10 μM. From the text: KINOMEscan competition binding (immobilised reference ligand, qPCR) on TNIK
(Real-time PCR tracks product formation cycle by cycle.)
As for `Cc1nc(Nc2ncc(C(=O)Nc3c(C)cccc3Cl)s2)cc(N2CCN(CCO)CC2)n1` [Dasatinib], the remaining binding at 10 µM came out at 11%.

For the compound `CN1CC[C@H](c2c(O)cc(O)c3c(=O)cc(-c4ccccc4Cl)oc23)[C@H](O)C1` [Flavopiridol], the remaining binding at 10 µM worked out at 33%.

In the case of `COC(=O)Nc1nc2cc(C(=O)c3ccccc3)ccc2[nH]1` [Mebendazole], the remaining binding at 10 µM came out at 8.2%.

These data come from article PMC5030704 (Scientific Reports, 2016).
